Inconclusive results and toxic doses are left out. No stated cut-off is given here; in the data, active means T/C of 150% or more; inactive means T/C below 125%.
Tested on: L1210 leukemia ip in BDF1 mice, survival T/C
Experiment: NCI In Vivo Anticancer Drug Screen. Data for tumor model L1210 Leukemia (intraperitoneal) in B6D2F1 (BDF1) mice
Conditions: endpoint: mean survival time, schedule: Q04DX002 (ip), vehicle: saline, higher = longer survival
Summary of the method: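 Tumor cells were implanted, animals were treated, and survival was followed. The result divides the treated measurement by the vehicle-control measurement.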

Measured: T/C

CC(C)(C)C1CCC(=O)CC1
inactive: dose: 12.5 mg/kg/injection 109 % of control | dose: 25.0 mg/kg/injection 106 % of control | dose: 50.0 mg/kg/injection 95 % of control | dose: 100.0 mg/kg/injection 99 % of control
